Results as given in PubChem BioAssay (NCI).
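A five-concentration, 48-hour dose response in 96-well plates underlies each endpoint, interpolated linearly between surrounding concentrations. TGI: total growth inhibition.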

Experiments:
Experiment in all cases: growth of human tumour cells (NCI), 48 h
[1] = tested on: 786-0 renal
[2] = tested on: A498 renal
[3] = tested on: A549 NSCLC
[4] = tested on: ACHN renal
[5] = tested on: BT-549 breast
[6] = tested on: CAKI-1 renal
[7] = tested on: CCRF-CEM leukemia
[8] = tested on: COLO 205 colon
[9] = tested on: DU-145 prostate
[10] = tested on: EKVX NSCLC
[11] = tested on: HCT-116 colon
[12] = tested on: HCT-15 colon
[13] = tested on: HL-60(TB) leukemia
[14] = tested on: HOP-62 NSCLC
[15] = tested on: HOP-92 NSCLC
[16] = tested on: HS 578T breast
[17] = tested on: HT29 colon
[18] = tested on: IGROV1 ovarian
[19] = tested on: K-562 leukemia
[20] = tested on: KM12 colon
[21] = tested on: LOX IMVI melanoma
[22] = tested on: M14 melanoma
[23] = tested on: MALME-3M melanoma
[24] = tested on: MCF7 breast
[25] = tested on: MDA-MB-231 breast
[26] = tested on: MDA-MB-435
[27] = tested on: MDA-N
[28] = tested on: MOLT-4 leukemia
[29] = tested on: NCI-H226 lung
[30] = tested on: NCI-H23 lung
[31] = tested on: NCI-H460 lung
[32] = tested on: NCI-H522 lung
[33] = tested on: NCI/ADR-RES ovarian
[34] = tested on: OVCAR-3 ovarian
[35] = tested on: OVCAR-4 ovarian
[36] = tested on: OVCAR-5 ovarian
[37] = tested on: OVCAR-8 ovarian
[38] = tested on: PC-3 prostate
[39] = tested on: RPMI-8226 leukemia
[40] = tested on: RXF 393 renal
[41] = tested on: SF-268 CNS
[42] = tested on: SF-295 CNS
[43] = tested on: SF-539 CNS
[44] = tested on: SK-MEL-2 melanoma
[45] = tested on: SK-MEL-28 melanoma
[46] = tested on: SK-MEL-5 melanoma
[47] = tested on: SK-OV-3 ovarian
[48] = tested on: SN12C renal
[49] = tested on: SNB-19 CNS
[50] = tested on: SNB-75 CNS
[51] = tested on: SR leukemia
[52] = tested on: SW-620 colon
[53] = tested on: T-47D breast
[54] = tested on: TK-10 renal
[55] = tested on: U251 CNS
[56] = tested on: UACC-257 melanoma
[57] = tested on: UACC-62 melanoma
[58] = tested on: UO-31 renal

## O=C(O)C(Cc1ccc(O)c([N+](=O)[O-])c1)N1C(=O)c2ccccc2C1=O (stereo not drawn)
[1]
  TGI: > 100 µM
[2]
  TGI: > 100 µM
[3]
  TGI: > 100 µM
[4]
  TGI: > 100 µM
[5]
  TGI: > 100 µM
[6]
  TGI: > 100 µM
[7]
  TGI: > 100 µM
[8]
  TGI: > 100 µM
[9]
  TGI: > 100 µM
[10]
  TGI: > 100 µM
[11]
  TGI: > 100 µM
[12]
  TGI: > 100 µM
[13]
  TGI: 47 µM
[14]
  TGI: > 100 µM
[15]
  TGI: > 100 µM
[16]
  TGI: > 100 µM
[17]
  TGI: > 100 µM
[18]
  TGI: > 100 µM
[19]
  TGI: > 100 µM
[20]
  TGI: > 100 µM
[21]
  TGI: > 100 µM
[22]
  TGI: > 100 µM
[23]
  TGI: > 100 µM
[24]
  TGI: > 100 µM
[25]
  TGI: > 100 µM
[26]
  TGI: > 100 µM
[27]
  TGI: > 100 µM
[28]
  TGI: > 100 µM
[29]
  TGI: > 100 µM
[30]
  TGI: > 100 µM
[31]
  TGI: > 100 µM
[32]
  TGI: > 100 µM
[33]
  TGI: > 100 µM
[34]
  TGI: > 100 µM
[35]
  TGI: > 100 µM
[36]
  TGI: > 100 µM
[37]
  TGI: > 100 µM
[38]
  TGI: > 100 µM
[39]
  TGI: > 100 µM
[40]
  TGI: > 100 µM
[41]
  TGI: > 100 µM
[42]
  TGI: > 100 µM
[43]
  TGI: > 100 µM
[44]
  TGI: > 100 µM
[45]
  TGI: > 100 µM
[46]
  TGI: > 100 µM
[47]
  TGI: > 100 µM
[48]
  TGI: > 100 µM
[49]
  TGI: > 100 µM
[50]
  TGI: > 100 µM
[51]
  TGI: > 100 µM
[52]
  TGI: > 100 µM
[53]
  TGI: > 100 µM
[54]
  TGI: > 100 µM
[55]
  TGI: > 100 µM
[56]
  TGI: > 100 µM
[57]
  TGI: > 100 µM
[58]
  TGI: > 100 µM
